The text below walks through data of paper PMC3183052, “Immunoprotectivity of HLA-A2 CTL Peptides Derived from Respiratory Syncytial Virus Fusion Protein in HLA-A2 Transgenic Mouse” (PLoS ONE, 2011).

One test concerns CD8+ T lymphocytes. Nature of the test: IFN-γ intracellular staining of CD8+ splenocytes. The class given is cell-based, mouse. As to conditions: splenocytes of peptide-immunized mice stimulated with 10 µg/mL peptide for five hours; flow cytometry. The procedure:
For IFN-γ intracellular staining, splenocytes from peptide- or vehicle-immunized mice were stimulated in vitro with the respective peptides (peptide 3, 13, 14, and 23) (10 µg/mL) for five hours, washed with 1× PBS, and stained with anti-CD8 antibody conjugated with fluorescein isothiocyanate (FITC) (BD Biosciences) for 30 minutes, followed by subsequent fixation and permeabilization following the instructions of eBioscience fixation and permeabilization kit. The splenocytes were further stained for intracellular IFN-γ using PE-conjugated anti-IFN-γ antibody (BD Biosciences) for another 30 minutes. After washing, the samples were analyzed using flow cytometry.
Figure 2 Epitope-specific CD4^+ and CD8^+ T-cell activation in peptide-immunized HLA-A*0201 transgenic mice. Splenocytes were isolated on day 17 from mice immunized twice subcutaneously with the peptides 3, 13, 14, 17, 23, or vehicle at day 0 and day 10. The splenocytes were labeled with CFSE and cultured in the presence or absence of 10 µg/mL of the respective peptides for 8 days. Proliferation of CD4^+ (A) or CD8^+ (B) lymphocytes in response to the different CD8 epitopes was analyzed by flow cytometry using anti-CD4 or CD8 antibodies conjugated with PE-Cy5. Results are presented as cell division index (CDI) as described in the Materials and Methods. […]
In general terms: In flow cytometry, cells or beads pass a laser one at a time.

The subject of a further test is IL-13. Kind of test: Lung IL-13 expression by real-time RT-PCR after RSV challenge. The class given is in vivo, mouse. As to conditions: peptide in IFA s.c. twice, day 4 post challenge, normalized to GAPDH, six mice per group. The procedure: To screen the immunodominance of epitopic peptide in the induction of RSV-F specific Th1/Th2 expression, HLA-A*0201 transgenic C57BL/6 mice were anesthetized with isoflurane and immunized with 1×10^7 pfu/50 µL of rAd-F0 or rAd-LacZ or 1×10^4 live RSV B1 via the intranasal (i.n.) route. Twenty days later, the mice were given booster immunization i.n. with the same dose. After 10 days of boost, mice were sacrificed and splenocytes were isolated for the cytokine ELISPOT assay. […] Mice body weight was monitored daily.
Lung RNA (5 µg) was mixed with 10 nmole random primers and 2 units of […] reverse transcriptase (Invitrogen) and incubated at 94°C for 10 minutes, 37°C for 30 minutes, and then at 4°C. The resulting cDNA was subjected to quantitative PCR analysis (The LightCycler® 480 Real-Time PCR system) with RSV N specific primer pairs, forward: 5′-[…]-3′ and reverse: 5′-[…]-3′. Expression of mouse GAPDH gene in the tested samples was detected as internal control by using specific primer pairs, forward: 5′-[…]-3′ and reverse: 5′-[…]-3′. The number of cycles (Ct) required for the amplification of the N gene and GAPDH was calculated. The relative expression of the N gene was calculated as followed: the individual Ct (RSV N) obtained from peptide- or vehicle-immunized lung was normalized by the respective Ct (GAPDH), and then [drawing 3] was divided by the mean of [drawing 4] . […]
On the technique in general: In qPCR the cycle at which signal appears reflects the starting amount.

For “YMLTNSELL [peptide 14, HLA-A*0201-restricted 9-mer synthetic peptide from F protein of RSV-B1 strain]”, the “proportion of IFN-γ+/CD8+ T lymphocytes” value with CD8+ T lymphocytes is given as “marginally increased”. Further, in the test with IL-13, the “lung IL-13 expression vs vehicle” value is recorded as “normal expression”.
